Read-outs that look alike come from different tables or passages of the source.
Assays:
[1] = Pharmacokinetics in blood plasma after a single sublingual or per oral swallowed dose of quazepam 15 mg standard tablet; assay type: in vivo, volunteer adult humans; conditions: for Lag time / half-life / Tmax / Cmax / AUC / CL/F: mean ± SD; for half-life / Tmax / Cmax / AUC: human; for half-life: plasma, 15 mg; for Tmax: time to Cmax; for Cmax: quazepam peak plasma concentration; for AUC: quazepam, area under plasma concentration-time curve; for CL/F: quazepam clearance
Protocol: Test results will now be described. Testing was carried out using volunteer adult humans. Standard tablets containing, as active ingredient, solely quazepam or solely halazepam, were used. Such tablets were intended by their manufacturers to be swallowed but dissolved adequately in the mouth to permit the intraoral testing. • Figure 1 is a graph illustrating the concentration of quazepam (Q) and N-desalkyl-2-oxoquazepam (DOQ) in the blood plasma over 96 hours following a single sublingual dose (SL) or per oral swallowed dose (PO) of quazepam in a 15 mg standard tablet. • Figure 2 is a graph illustrating the concentration of quazepam (Q) and N-desalkyl-2-oxoquazepam (DOQ) in the blood plasma over 210 hours following a single sublingual dose (SL) or per oral swallowed dose (PO) of quazepam in a 15 mg standard tablet. • Figure 3 is a graph of computer simulated concentration levels of quazepam and N-desalkyl-2-oxoquazepam in the blood following sublingual and oral swallowed doses of quazepam (15 mg standard tablet) once a day for a 15 day period illustrating the marked reduction in accumulated levels of desalkyloxoquazepam with sublingual dosing; • Figure 4 is a graph illustrating the concentration of halazepam (HZ) and N-desalkyl-3-hydroxy-halazepam (ND) in the blood over 96 hours following a single sublingual dose (SL) or per oral swallowed dose (PO) of halazepam in a 20 mg standard tablet. • Figure 5 is a graph illustrating the concentration of halazepam (HZ) and N-desalkyl-3-hydroxy-halazepam (ND) in the blood over 240 hours following a single sublingual dose (SL) or per oral swallowed (PO) of halazepam in a 20 mg standard tablet; and • Figure 6 is a flow chart of the method of the present invention.
This change in concentrations for the two compounds can be seen with reference to Figure 1 and Figure 2 of the drawings where the differences in the parent compound Q and the metabolite DOQ for both the oral and sublingual dosing is shown. In Figure 3, by use of standard mutliple Q dose simulations, the differences in accumulation of Q and DOQ for sublingual versus oral dosing over 15 days is shown. With chronic dosing it is readily apparent that after 15 days the DOQ level, following oral administration, has reached levels that are associated with the threshold for impairing ataxic and incoordination affects (especially if larger doses are given).
In Table 1 and Table 2, set forth below, the average pharmacokinetic parameters for both Q and DOQ for both oral and sublingual routes of administration are set forth: TABLE I

[2] = Concentration in blood after a single sublingual or per oral swallowed dose of halazepam 20 mg standard tablet; assay type: in vivo, volunteer adult humans; conditions: sublingual administration of halazepam versus oral
Protocol: Test results will now be described. Testing was carried out using volunteer adult humans. Standard tablets containing, as active ingredient, solely quazepam or solely halazepam, were used. […]

[3] = quazepam in plasma, oral quazepam 15 mg
[4] = quazepam in plasma, sublingual quazepam 15 mg

SMILES: O=C1CN=C(c2ccccc2F)c2cc(Cl)ccc2N1 [N-DESALKYL-2-OXOQUAZEPAM, N-desalkyl-2-oxoquazepam]
- Lag time ([1]; metabolite N-desalkyl-2-oxoquazepam in plasma, oral quazepam 15 mg): 0.66 ± 0.32 h
- Lag time ([1]; metabolite N-desalkyl-2-oxoquazepam in plasma, sublingual quazepam 15 mg): 1.74 ± 0.86 h
- DOQ level relative to oral quazepam administration levels ([1]; sublingual dosing of quazepam versus oral): about one-half

SMILES: O=C1Nc2ccc(Cl)cc2C(c2ccccc2)=NC1O (stereo not shown) [N-dealkyl-hydroxy-halazepam, N-desalkyl-3-hydroxy-halazepam]
- level of metabolite N-dealkyl-hydroxy-halazepam [2]: reducing

SMILES: O=C1CN=C(c2ccccc2)c2cc(Cl)ccc2N1CC(F)(F)F [halazepam, 7-chloro-1,3 dihydro-5-phenyl-1-1-(2,2,2-trifluoroethyl)-2H-1,4-benzodiazepine-2-one]
- availability of halazepam [2]: significantly increased

SMILES: Fc1ccccc1C1=NCC(=S)N(CC(F)(F)F)c2ccc(Cl)cc21 [quazepam, 7-chloro-1-(2,2,2-trifluorethyl)-5-(o-fluorophenyl)-1,3-dihydro-2H-1,4-benzodiazepine-2-thione]
- half-life ([1]; quazepam in plasma, absorption half-life, sublingual quazepam 15 mg, read-out: t1/2 Ka (converted)): 0.27 ± 0.1 h
- half-life ([1]; quazepam in plasma, rapid distribution half-life, sublingual quazepam 15 mg, read-out: t1/2 λ₁ (converted)): 1.44 ± 0.45 h
- half-life ([1]; quazepam in plasma, terminal elimination half-life, sublingual quazepam 15 mg, read-out: t1/2 λ₂ (converted)): 27.7 ± 7.18 h
- half-life ([1]; po, quazepam in plasma, absorption half-life, oral quazepam 15 mg, read-out: t1/2 Ka (converted)): 0.77 ± 0.23 h
- half-life ([1]; po, quazepam in plasma, rapid distribution half-life, oral quazepam 15 mg, read-out: t1/2 λ₁ (converted)): 1.73 ± 0.65 h
- half-life ([1]; po, quazepam in plasma, terminal elimination half-life, oral quazepam 15 mg, read-out: t1/2 λ₂ (converted)): 24.6 ± 8.35 h
- Tmax [1, 3]: 2.57 ± 1.69 h
- Tmax [1, 4]: 0.78 ± 0.31 h
- Cmax ([1]; oral quazepam 15 mg): 26.7 ± 6.83 ng/mL
- Cmax ([1]; sublingual quazepam 15 mg): 42.4 ± 10.4 ng/mL
- AUC ([1]; oral quazepam 15 mg): 473 ± 239 ng·h/mL
- AUC ([1]; sublingual quazepam 15 mg): 1460 ± 299 ng·h/mL
- CL/F ([1]; oral quazepam 15 mg): 37.56 ± 16.89 h⁻¹
- CL/F ([1]; sublingual quazepam 15 mg): 8.78 ± 5.25 h⁻¹
- Lag time [1, 3]: 0.52 ± 0.28 h
- Lag time [1, 4]: 0.18 ± 0.05 h
- increase of availability of quazepam ([1]; sublingual dosing in contrast to oral dosing of quazepam): about 60%

— patent EP0428272A2, “Trifluorobenzodiazepine compounds for use in therapy by intraoral administration” (Ellinwood, Everett Hews, priority 1989, dated 1991)
